Results from ChEMBL document CHEMBL3301361, “Experimental in vitro DMPK and physicochemical data on a set of publicly disclosed compounds”.
In brackets after ≈: the same amount, converted by molar mass.

What was measured:
physchem [1] = conditions: octan-1-ol/water
in vitro [2] = conditions: human, plasma
in vitro [3] = conditions: SD, HW or BN, rat, plasma
physchem [4] = conditions: pH 7.4 buffer

| Compound | logD (physchem [1]; pH 7.4, LogD7.4) | fraction unbound at 5 h (in vitro [2]; PPB) | fraction unbound at 5 h (in vitro [3]) | logD (physchem [1]; pH 7.4) | fraction unbound at 5 h (in vitro [2]) | solubility thermodynamic (physchem [4]) |
| --- | --- | --- | --- | --- | --- | --- |
| CNCCCC12CCC(c3ccccc31)c1ccccc12 [MAPROTILINE] | 0.89 | 0.126 | 0.0784 | – | – | – |
| CCOC(=O)Nc1ccc(NCc2ccc(F)cc2)nc1N [FLUPIRTINE] | 2.22 | 0.16 | 0.22 | – | – | – |
| CCc1nc(N)nc(N)c1-c1ccc(Cl)cc1 [PYRIMETHAMINE] | 2.31 | 0.0736 | 0.069 | – | – | – |
| OCCN1CCN(CCCN2c3ccccc3Sc3ccc(C(F)(F)F)cc32)CC1 [FLUPHENAZINE] | – | – | 0.0119 | 3.8 | 0.0119 | – |
| Cc1ccsc1C(=CCCN1CCC[C@@H](C(=O)O)C1)c1sccc1C [TIAGABINE] | 1.49 | 0.051 | 0.0836 | – | – | – |
| CN(C(=O)Cc1ccc(-n2cnnn2)cc1)C1CCN(Cc2ccc(C(F)(F)F)cc2)CC1 | – | 0.0872 | 0.0606 | – | – | 17.8 µM (≈ 8.16 µg/mL) |
| O=C(NCc1ccc(OC(F)(F)F)cc1)C1c2ccccc2C(=O)N1C1CCOCC1 (stereo unspecified) | – | 0.0948 | 0.132 | – | – | 83.2 µM (≈ 36.1 µg/mL) |
| C[C@@H]1CN(c2ccc3c(n2)NC(=O)CO3)[C@H](c2ccccc2)CO1 | 2.75 | 0.0633 | 0.0928 | – | – | – |
| CN1CCc2cc(Cl)c(O)cc2[C@@H](c2ccccc2)C1 [SCH-23390] | 2.5 | 0.0801 | 0.17 | – | – | – |
| Cn1cc[nH]c1=S [METHIMAZOLE] | -0.42 | 0.81 | 0.814 | – | – | – |
| COC[C@@H](O)Cn1c(=O)cnn(-c2ccc(Cl)c(C(=O)NCC3(O)CCCCCC3)c2)c1=O | 1.44 | 0.586 | 0.608 | – | – | – |
| Cc1cc2c(s1)Nc1ccccc1N=C2N1CCN(C)CC1 [OLANZAPINE] | – | – | 0.124 | 2.19 | 0.107 | – |
| CCn1nc(C)c(C(=O)N[C@@H](C)C(C)(C)C)c1NS(=O)(=O)c1ccc(C)cc1 | 0.95 | 0.0163 | 0.0477 | – | – | – |
| Cc1ccccc1CN1CCC(N2CCC(n3c(=O)[nH]c4ccccc43)CC2)CC1 | – | – | 0.299 | 2.68 | 0.355 | – |
| Cc1ccc(Sc2ccccc2CN(C)C)c(N)c1 | 2.6 | 0.11 | 0.0928 | – | – | – |
| Clc1ccc2c(c1)C(N1CCNCC1)=Nc1ccccc1O2 [AMOXAPINE] | 2.28 | 0.11 | 0.101 | – | – | – |
| CCN(CC)S(=O)(=O)c1ccc(-c2cc(C(F)(F)F)ccc2OCC(=O)O)cc1 | 0.67 | 0.0122 | 0.0179 | – | – | – |

| Compound | logD (physchem [1]; pH 7.4, LogD7.4) | fraction unbound at 5 h (in vitro [2]; PPB) | fraction unbound at 5 h (in vitro [3]) | logD (physchem [1]; pH 7.4) | fraction unbound at 5 h (in vitro [2]) | solubility thermodynamic (physchem [4]) |
| --- | --- | --- | --- | --- | --- | --- |
| N#C[C@@]1(NC(=O)[C@@H](N)Cc2cccs2)C[C@@H]1c1ccccc1 | 1.3 | 0.46 | 0.344 | – | – | – |
| CC(C)Oc1cc(Nc2nc(N[C@@H](C)c3ccc(F)cn3)nc(OC(CO)CO)c2Cl)n[nH]1 | 2.77 | 0.176 | 0.173 | – | – | – |
| COc1cc(C)c(S(=O)(=O)N(C)CCOCC(=O)N2CCC(C3CCN(C)CC3)CC2)c(C)c1 | 0.3 | 0.483 | 0.511 | – | – | – |
| COc1ccccc1CN(C(C)=O)c1cnccc1Oc1ccccc1 | 3 | 0.069 | 0.101 | – | – | – |
| COc1ccccc1O[C@@H](c1ccccc1)[C@@H]1CNCCO1 | 0.9 | 0.309 | 0.768 | – | – | – |
| Cc1ccc(NC(=O)Nc2nnc(-c3ccncc3)s2)cc1 | – | 0.0061 | 0.0064 | – | – | – |
| NC(=O)c1cncc(-c2ccc([C@H]3CC[C@H](CCO)CC3)cc2)n1 | – | 0.028 | 0.013 | – | – | – |
| Fc1ccc([C@@H]2CCNC[C@H]2COc2ccc3c(c2)OCO3)cc1 [PAROXETINE] | 1.78 | 0.101 | 0.0532 | – | – | – |
| CC(C)N1C(=O)[C@H](NC(=O)[C@@H](Cc2ccccc2OC(F)(F)F)NC(=O)OC(C)(C)C)CCc2ccccc21 | – | 0.003 | 0.003 | – | – | 5 µM (≈ 2.75 µg/mL) |
| N#Cc1cc(S(=O)(=O)Nc2ncns2)ccc1Oc1ccc(C(F)(F)F)cc1-c1ccnnc1 | – | 0.0059 | 0.0209 | – | – | – |
| C[C@H]([C@H](O)c1ccc(O)cc1)N1CCC(O)(c2ccccc2)CC1 | 0.91 | 0.681 | 0.608 | – | – | – |
| O=C(NCc1ccc(OC(F)(F)F)cc1)C1c2ccccc2C(=O)N1C[C@@H]1CCCO1 (stereo partly specified) | – | 0.0358 | 0.0606 | – | – | – |
| Cc1nc(C(C)C)c(C(N)=O)nc1-c1ccc([C@H]2CC[C@H](CC(=O)O)CC2)cc1 | – | 0.0262 | 0.0119 | – | – | – |
| Cc1onc(-c2c(Cl)cccc2Cl)c1NC(=O)OCc1c(F)cccc1Cl | – | 0.002 | 0.003 | – | – | – |
| CC(C)(C)C(NC(=O)c1ccccc1)C(=O)c1ccc(Cl)cc1 (stereo unspecified) | – | 0.006 | 0.0081 | – | – | – |
| CN(Cc1cccc2ccccc12)c1cc(N2CCOCC2)nc(=O)[nH]1 | – | 0.0568 | 0.0064 | – | – | – |
